The values that follow are results of earlier work, collected in patent publication US12605385B2, “Methotrexate formulation” (Therakind Ltd., priority 2014, dated 2026).

Where two headings read alike, the source gives them in different places.

The conditions of series [1]: 50% v/v propylene glycol: water formulation.

As to `CN(Cc1cnc2nc(N)nc(N)c2n1)c1ccc(C(=O)N[C@@H](CCC(=O)O)C(=O)O)cc1` [Methotrexate, 4-amino-N^10-methylpteroylglutamic acid], in series [1], the “drug solubility on increasing the vehicle pH to 6.34” value was “further increased”. In addition, in series [1], the “solubility at pH 5.29 compared with pH 4” value is “significantly higher”. Besides, the solubility result is, setting by setting: (in alkaline solution) “freely soluble”; (in hydrochloric acid) “slightly soluble”; (in water, alcohol, chloroform and ether) “almost insoluble”.
